Source: patent US7060875B2, “Methods for delaying leaf senescence using the ORE7 gene” (Postech Foundation, priority 2001, dated 2006)
“Also recorded” adds a separate entry of the source.

Legend:
[1] = tested on: wild type Arabidopsis thaliana (Col); assay: Photosynthesis activity (Fv/Fm of PS II) of leaves after phytohormone treatment; type: in vivo; details: wild type leaves at 25 DAG; 50 μM ABA or 50 μM MeJA in MES buffer, or 4.5 μM ethylene gas; 22° C., continuous light
Method: (§1) In order to measure photosynthesis activity, a method of Oh et al. (Oh S. A. et al., Plant Mol. Biol., 30: 939, 1996), was used. First, leaves at the respective DAG were dark-treated for 15 minutes and measured for fluorescence of chlorophylls using Plant Efficiency Analyzer (Hansatech). The photosynthesis activity was expressed as photochemical efficiency of photosystem II (PS II) using a fluorescent property of chlorophylls. The photochemical efficiency was expressed as the ratio of maximum variable fluorescence (Fv) to maximum value of fluorescence (Fm) (Fv/Fm). As the ratio is increased, the photosynthesis activity improves.
(§2) Further, in the present invention, a change in leaf longevity of the ore7 mutant according to treatment with phytohormones, such as ABA, MeJA and ethylene that are involved in senescence regulation was examined by measuring changes in photosynthesis activity and chlorophyll content. 12 independent leaves at 25 DAG were floated in 2 ml of MES buffer containing 50 μM ABA or 50 μM MeJA. Treatment with ethylene was carried out by culturing Arabidopsis thaliana in a glass box containing 4.5 μM ethylene gas. As a negative control group, MES buffer not containing ABA or MeJA was used. The treatments with phytohormones as described above were carried out for three days at 22° C. with continuous exposure to light. The chlorophyll content and the photosynthesis activity were measured in the same manner as described in Example 2.

[2] = tested on: longevity-extended mutant ore7; type: in vivo, Arabidopsis thaliana; details: ore7 mutant leaves at 25 DAG; 50 μM ABA or 50 μM MeJA in MES buffer, or 4.5 μM ethylene gas; 22° C., continuous light
Method: as §1, §2

[3] = tested on: wild type Arabidopsis thaliana (Col); assay: Chlorophyll content of leaves after phytohormone treatment; type: in vivo; details: wild type leaves at 25 DAG; 50 μM ABA or 50 μM MeJA in MES buffer, or 4.5 μM ethylene gas; 22° C., continuous light
Method: (§3) In order to measure the chlorophyll content, the respective sample leaves were boiled in 95% ethanol at 80° C., thereby extracting chlorophyll. The chlorophyll content was measured at absorbance of 648 nm and 664 nm, and expressed as chlorophyll concentration per fresh weight of leaves (Vermon et al., Anal. Chem., 32:1142–1150, 1960).
as §2

[4] = tested on: longevity-extended mutant ore7; type: in vivo, Arabidopsis thaliana; details: ore7 mutant leaves at 25 DAG; 50 μM ABA or 50 μM MeJA in MES buffer, or 4.5 μM ethylene gas; 22° C., continuous light; remark: listed apart in the source
Method: as §3, §2

[5] = tested on: wild type Arabidopsis thaliana (Col); assay: Northern blot analysis of SEN4 expression after phytohormone treatment; type: in vivo; details: wild type compared to ore7 mutant; 0, 3, 4 and 5 days after treatment

SMILES: C=C [ethylene]
- change in photosynthesis activity [1]: significantly reduced; also recorded: rapidly decreased
- change in photosynthesis activity [2]: slight decrease
- change in chlorophyll content [3]: significantly reduced
- reduction in chlorophyll content [4]: became blunt
- expression of SEN4 gene [5]: highly increased

SMILES: CC1=CC(=O)CC(C)(C)[C@@]1(O)/C=C/C(C)=C\C(=O)O [ABA, abscisic acid]
- change in photosynthesis activity [1]: significantly reduced; also recorded: rapidly decreased
- change in photosynthesis activity [2]: slight decrease
- change in chlorophyll content [3]: significantly reduced
- reduction in chlorophyll content [4]: became blunt
- expression of SEN4 gene [5]: highly increased

SMILES: CC/C=C\CC1C(=O)CCC1CC(=O)OC (stereo not drawn) [MeJA, methyl jasmonate]
- change in photosynthesis activity [1]: significantly reduced; also recorded: rapidly decreased
- change in photosynthesis activity [2]: slight decrease
- change in chlorophyll content [3]: significantly reduced
- reduction in chlorophyll content [4]: became blunt
- expression of SEN4 gene [5]: highly increased
